Measurements published in patent US20240140963A1, “FUSED TRICYCLIC CYCLIN-DEPENDENT KINASE INHIBITOR, AND PREPARATION METHOD THEREFOR AND PHARMACEUTICAL USE THEREOF” (Tuojie Biotech (Shanghai) Co., Ltd., priority 2021, published 2024).

Experiments:
CDK6/cyclin D3 = target: T1, CDK6/cyclin D3 (Homo sapiens, UniProt Q00534); assay: CDK6/cyclin D3 kinase activity, mobility shift assay; type: biochemical
T1 construct: purchased Carna 04-107
Method: (§1) In vitro CDK kinase activity was tested using a mobility shift assay.
(§2) The IC50 values of the compounds were obtained by fitting using XLFit excel add-in version 5.4.0.8. Fitting formula:
(§3) Y=Bottom+(Top−Bottom)/(1+10^((Log IC50−X)×Hill Slope)). • X: the log value of the compound concentration; Y: the percent inhibition of the compound.

CDK4/cyclin D1 = target: T2, CDK4/cyclin D1 (Homo sapiens, UniProt P11802); assay: CDK4/cyclin D1 kinase activity, mobility shift assay; type: biochemical
T2 construct: purchased ProQinase 0142-0143-1
T2 sequence (P11802 whole entry): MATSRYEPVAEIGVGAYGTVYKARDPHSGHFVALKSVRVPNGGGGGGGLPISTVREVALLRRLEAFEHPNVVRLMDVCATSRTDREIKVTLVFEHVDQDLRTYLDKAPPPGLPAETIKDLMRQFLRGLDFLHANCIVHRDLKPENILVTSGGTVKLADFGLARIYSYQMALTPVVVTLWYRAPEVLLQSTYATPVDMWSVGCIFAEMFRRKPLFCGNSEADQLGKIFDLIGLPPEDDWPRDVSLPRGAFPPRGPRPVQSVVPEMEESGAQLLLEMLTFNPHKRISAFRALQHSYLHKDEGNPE
T2 sequence (P24385 whole entry partner): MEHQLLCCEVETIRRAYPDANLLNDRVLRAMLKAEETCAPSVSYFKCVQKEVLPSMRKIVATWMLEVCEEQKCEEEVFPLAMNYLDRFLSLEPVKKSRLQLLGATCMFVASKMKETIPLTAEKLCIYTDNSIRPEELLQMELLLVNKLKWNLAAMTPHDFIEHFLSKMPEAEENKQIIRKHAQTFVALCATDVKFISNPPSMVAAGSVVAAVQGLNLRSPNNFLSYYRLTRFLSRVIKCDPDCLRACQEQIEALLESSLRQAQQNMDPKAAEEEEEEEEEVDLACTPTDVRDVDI
Method: as §1, §2, §3

human PXR = target: T3, human PXR (Homo sapiens, UniProt O75469); assay: PXR induction assay in DPX2 cells (luciferase reporter); type: cell-based
T3 construct: host or cells: DPX2 (HepG2)
T3 sequence (O75469 1-434): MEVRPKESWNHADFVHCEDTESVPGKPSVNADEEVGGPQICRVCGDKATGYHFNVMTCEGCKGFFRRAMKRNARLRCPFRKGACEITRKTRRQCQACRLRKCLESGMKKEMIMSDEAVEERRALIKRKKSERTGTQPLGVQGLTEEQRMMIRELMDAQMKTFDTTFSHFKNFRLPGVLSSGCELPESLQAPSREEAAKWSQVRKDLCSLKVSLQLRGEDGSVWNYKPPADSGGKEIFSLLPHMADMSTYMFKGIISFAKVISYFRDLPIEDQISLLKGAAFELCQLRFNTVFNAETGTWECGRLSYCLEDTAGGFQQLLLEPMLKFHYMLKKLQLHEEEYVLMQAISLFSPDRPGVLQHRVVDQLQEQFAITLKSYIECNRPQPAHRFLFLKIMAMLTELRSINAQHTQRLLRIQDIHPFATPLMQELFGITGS
Method: 1. The potential of the test compounds to induce the activity of drug metabolism enzymes by in vitro activating PXR was evaluated.
1) DPX2 (HepG2 cells were stably transfected with the human PXR gene and the fluorescent reporter gene) cells were purchased from Puracyp (Carlsbad, CA).
When covering 80-90% of the bottom of the culture flask, the cells were digested.
4) The cell suspension was transferred to a conical-bottomed centrifuge tube and centrifuged at 120 g for 10 min. The cells were suspended in the plating medium and adjusted to a concentration of 4×10^5 cells/mL. 100 μL of diluted cells were added to each well of a 96-well cell culture plate. The culture plate was placed in an incubator and incubated at 37° C. for 24 h before PXR activation assays.
The final concentration of DMSO was 0.1%. To 1 mL of pre-incubated medium, 1 μL of DMSO was added as a solvent control.
2) The cell culture plate was removed from the incubator, and the medium was discarded. 100 μL of each of the test compounds and positive compound was added to an appropriate well in duplicate, and the cell plate was placed in an incubator and incubated for 24 h.
1) After […] of drug treatment, quantification of PXR activation could be performed on the culture.
2) The CellTiter-Fluor™ cell viability assay kit and the One-Glo luciferase reagent were equilibrated to room temperature. The GF-AFC (10 μL) substrate was added to assay buffer (10 mL) to form 2× reagent, and the reagent was then diluted to 1× with 10 mL of PBS; the ONE-Glo substrate was added to the ONE-Glo luciferase assay buffer.
5) The ONE-Glo reagent was poured into a reagent reservoir, and then 50 μL was transferred to each well using a multi-channel pipette. The reagent was gently and well mixed, and the mixture was incubated and well mixed at room temperature for 5 min. After the incubation, the luminescence value of each well was read using a luminometer.
The luciferase activity was expressed in terms of […], where RLU is the mean luminescence intensity value of two replicates of each concentration of each compound, and RFU is the mean fluorescence intensity of two replicates of each concentration of each compound.
The calculation formula for induction fold: […]

[1] = compound concentration 0.123 μM

T1 sequence (Q00534 whole entry): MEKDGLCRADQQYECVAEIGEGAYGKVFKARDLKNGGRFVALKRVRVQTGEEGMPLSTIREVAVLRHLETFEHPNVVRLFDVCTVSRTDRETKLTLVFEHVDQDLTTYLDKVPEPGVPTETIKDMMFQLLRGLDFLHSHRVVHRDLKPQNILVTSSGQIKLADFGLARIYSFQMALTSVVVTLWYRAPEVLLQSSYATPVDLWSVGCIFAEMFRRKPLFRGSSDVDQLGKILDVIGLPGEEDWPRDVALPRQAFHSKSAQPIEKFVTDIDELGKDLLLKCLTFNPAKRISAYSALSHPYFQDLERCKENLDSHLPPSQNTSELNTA
T1 sequence (P30281 whole entry partner): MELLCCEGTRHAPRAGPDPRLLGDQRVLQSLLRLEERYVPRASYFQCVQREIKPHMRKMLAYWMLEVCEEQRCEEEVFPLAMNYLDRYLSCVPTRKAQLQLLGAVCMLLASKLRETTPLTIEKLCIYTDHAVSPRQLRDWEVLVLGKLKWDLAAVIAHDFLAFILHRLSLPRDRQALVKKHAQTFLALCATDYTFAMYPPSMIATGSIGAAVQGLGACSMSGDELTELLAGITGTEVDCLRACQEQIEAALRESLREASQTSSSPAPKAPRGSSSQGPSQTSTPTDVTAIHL

Row | Compound | IC50 (CDK6/cyclin D3) | IC50 (CDK4/cyclin D1) | Induction fold (human PXR; [1]) | Induction fold (human PXR; compound concentration 10.0 μM)
1 | CC1COc2c(-c3nc(N[C@@H]4CCOC[C@H]4O)ncc3Cl)cc(F)c3nc(C(C)(C)O)n1c23 (mixture of isomers) [4f (racemate) in Example 4] | 171 nM | 15 nM |  | 
2 | C[C@H]1COc2c(-c3nc(N[C@@H]4CCOC[C@H]4O)ncc3Cl)cc(F)c3nc(C(C)(C)O)n1c23 (single isomer, unassigned) [Isomer 1 with a retention time of 2.078 min in Example 4] |  |  | 0.87 | 1.43
3 | Cc1nc2c(F)cc(-c3nc(N[C@@H]4CCN(S(C)(=O)=O)C[C@H]4O)ncc3Cl)c3c2n1[C@@H](C)CO3 (single isomer, unassigned) [Isomer 1 with a retention time of 2.094 min in Example 2] | 39 nM | 2.5 nM |  | 
4 | Cc1nc2c(F)cc(-c3nc(N[C@@H]4CCOC[C@H]4O)ncc3F)c3c2n1[C@@H](C)CO3 (single isomer, unassigned) [Isomer 1 with a retention time of 2.903 min in Example 1] | > 1000 nM | 26 nM |  | 
5 | Cc1nc2c(F)cc(-c3nc(N[C@@H]4CCOC[C@H]4O)ncc3Cl)c3c2n1[C@@H](C)CO3 (single isomer, unassigned) [Isomer 1 with a retention time of 3.518 min in Example 3] | 64 nM | 15 nM |  | 
6 | C[C@@H]1COc2c(-c3nc(N[C@@H]4CCOC[C@H]4O)ncc3Cl)cc(F)c3nc(C(C)(C)O)n1c23 (single isomer, unassigned) [Isomer 2 with a retention time of 1.887 min in Example 4] |  |  | 0.99 | 1.48
7 | Cc1nc2c(F)cc(-c3nc(N[C@@H]4CCN(S(C)(=O)=O)C[C@H]4O)ncc3Cl)c3c2n1[C@@H](C)CO3 (single isomer, unassigned) [Isomer 2 with a retention time of 2.499 min in Example 2] | 9.1 nM | 1.5 nM |  | 
8 | Cc1nc2c(F)cc(-c3nc(N[C@@H]4CCOC[C@H]4O)ncc3F)c3c2n1[C@@H](C)CO3 (single isomer, unassigned) [Isomer 2 with a retention time of 3.997 min in Example 1] | 301 nM | 11 nM |  | 
